Measurements from a melting point compilation (Tetko et al.; mined from patent text by program, amines drawn as free bases though some values may be those of a salt).

| Structure (SMILES) | melting point |
| --- | --- |
| COc1cc2c(Nc3ccc(Br)cc3F)ncnc2cc1OCCCSC | 250 to 252 °C |
| CN(C(=O)COc1onc(C(F)(F)F)c1-c1ccccc1)c1ccccc1 | 93 to 94 °C |
| CC(C)(C#N)c1cc(Cn2cncn2)cc(C(N)=O)c1 | 144 to 145 °C |
| CCOC12CC(C)(C)C(O1)C(OC(=O)c1ccc(N)cc1)C=C2C (stereo not given) | 130 to 132 °C |
| O=C(O)C1CC(=Cc2ccccc2)CC1C(=O)O (stereo not given) | 172 °C |
| COC(=O)c1ccc2c(c1)SC(c1ccccc1)C(c1ccc3c(c1)NC(=O)CO3)=C2 (stereo not given) | 217 to 219 °C |
| Cc1nc(N)nc(N)c1CCC(C)c1ccc(Cl)cc1 (stereo not given) | 125 to 128 °C |
| CN1CCc2ccccc21 | 88 to 90 °C |
| O=P(O)(O)CCCCCCCCCCCO | 109 to 112 °C |
| NC(=O)c1cccc(-c2noc(-c3ccccc3F)n2)c1 | 231 to 234 °C |
| N=C(N)N1CCC(CCC(=O)O)CC1 | > 275 °C |
| COc1cc(N)c2nccc(C)c2c1Oc1cccc(C(F)(F)F)c1 | 113 to 115 °C |
| COc1ccc(-c2nnc3c4ccccc4c(Nc4cccc(-c5nn[nH]n5)c4)nn23)cc1 | 305 to 308 °C |
| CC(C)C(C(=O)O)c1ccc2ccccc2c1 (stereo not given) | 129 to 130 °C |
| COCn1nc(N2C(=O)c3ccccc3C2=O)c2cc(S(=O)(=O)C(C)C)cc(OCCc3ccccn3)c21 | 160 to 161 °C |
| COc1c(O)ccc(C(=O)c2ccccc2)c1F | 126 to 128 °C |
| CC(=O)Oc1nn(-c2ccc(C)cc2)c(=O)c2c1Nc1cc(Cl)ccc1C2 | 238 to 240 °C |
| CC[C@H]1[C@@H](O)C(F)(F)C(=O)N1c1ccc(C#N)c(Cl)c1 | 137 to 140 °C |
| CS(=O)(=O)Nn1c(=O)[nH]c2cc([N+](=O)[O-])c(-n3cccc3)cc2c1=O | 243 to 250 °C |
| COC(=O)C(=CO)N(C)C(=O)C=Cc1ccccc1Cl | 129 to 130 °C |
| S=c1cc(N2CCOCC2)ss1 | 60 °C |
| CC(C)OC(=O)c1cc(-n2c(=O)[nH]c3c(c2=O)CCCC3)c(F)cc1Cl | 203 to 205 °C |
| COC(=O)C(=O)N1C(=O)[C@H](N2C(=O)c3ccccc3C2=O)[C@H]1Cl | 49 to 52 °C |
| Cc1ccc(N(Cc2ccc(N(C)C)cc2)C(=O)Nc2c(C(C)C)cccc2C(C)C)c(C)c1 | 100 °C |
| Nc1ccc(-c2cn(CCF)nn2)cc1 | 79 to 82 °C |

| Structure (SMILES) | melting point |
| --- | --- |
| CC(C)(Nc1cccc(C(=N)N)c1)C(=O)Nc1ccc(-c2ccccc2S(N)(=O)=O)cc1 | 197 °C |
| O=C(O)CC(Cc1ccccc1)NC(=O)C1Cc2ccccc2N1S(=O)(=O)c1ccc(-c2cccc(C(F)(F)F)c2)cc1 (stereo not given) | 78 to 82 °C |
| CC(=O)OC1CCN(c2c(F)cc3c(=O)c(C(=O)O)cn4c3c2CCC4C)CC1 (stereo not given) | 250 to 253 °C |
| O=C(Cc1cn(-c2ccccc2)nc1-c1ccc(Cl)cc1)NO | 168 to 169 °C |
| COc1ccc(C(C#N)=NO)cc1 | 141 °C |
| CN(C(=O)OC(C)(C)C)C(S)=NC(=O)OC(C)(C)C | 118 °C |
| Oc1noc2ccc(Cl)cc12 | 219 to 222 °C |
| Nc1[nH]ncc1-c1nc(-c2ccco2)n[nH]1 | 175 to 176 °C |
| CC(C)(OC(=O)c1ccccc1)c1nccc2ccccc12 | 116 to 119 °C |
| O=C1CCOc2c(Cl)cc(Br)cc21 | 109 °C |
| O=C(O)c1cc(Br)c(O)cc1O | 210 to 212 °C |
| CCOC(=O)c1ccc(-c2nc(COc3ccc(COc4nn(-c5ccccc5)cc4C=O)cc3OC)c(C)o2)s1 | 156 to 157 °C |
| O=S1(=O)N=C(O)C(c2ccccc2)=N1 | 202 to 204 °C |
| CN1CC(=O)Nc2ccc(F)cc2C1=O | > 250 °C |
| CCCN(CCN1CCN(c2ccccc2OC)CC1)C1CCc2ncsc2C1 (stereo not given) | 136 °C |
| CCOC(=O)Cc1ccc(NC(=O)C(CCc2ccccc2)NS(=O)(=O)c2ccc(Br)cc2)cc1 (racemic) | 130 to 131 °C |
| Cn1nc(-c2nc(Br)c(N)nc2-c2ccccc2)ccc1=O | 220 to 222 °C |
| N#CC(Cc1ccco1)(Cn1cncn1)c1ccc(Cl)cc1 (stereo not given) | 112 to 114 °C |
| CC(C)(CO)NC(=O)c1nn(-c2ccc(F)cc2)c2c1C1CCC2CC1 | 165 to 168 °C |
| NCC(COC(C(F)(F)F)(C(F)(F)F)C(F)(F)F)(COC(C(F)(F)F)(C(F)(F)F)C(F)(F)F)C(=O)O | 182 to 184 °C |
| CN(C)c1cccc2c1c(=O)n(C)c1c(-c3nc(C4CC4)no3)ncn21 | 214 °C |
| O=C(O)c1sc(-c2cccc(Cl)c2)nc1O | 107 to 108 °C |
| NC(=O)[C@@H]1CCCN1C(=O)CNP(=O)(Cc1ccccc1)Cc1ccccc1 | 91 to 95 °C |
| CN(C=C(C#N)C(=O)Nc1ccccc1Cl)Cc1ccccc1Cl | 138 to 139 °C |
| COc1cc(N=Nc2ccc3[nH]nnc3c2)c(O)c2ccccc12 | 254 °C |
